Measurements: patent publication US8466118B2, “Modulation of blood brain barrier protein expression” (Saint Louis University, priority 2007, dated 2013)
Oligonucleotides are written 5' to 3', each unit as a sugar letter and its base; * is a phosphorothioate linkage, no mark a phosphodiester; rarer units and linkages stand in square brackets, end groups in braces. Plain capitals give the bases only. No end group written: not given here. d = 2'-deoxy (DNA)

Key:
beta-F1 ATPase = biological target: T1, beta-F1 ATPase (Mus musculus, UniProt P56480); experiment: Brain perfusion uptake of I-PACAP27/I-PACAP38 after iv antisense; format: in vivo; settings: single tail vein injection 24 h before study, 10 μg/mouse
T1 construct: from tissue; host or cells: brain / blood-brain barrier of living mice (CD-1; SAMP8 in the T-maze study)
Description: To test the effectiveness of PTS-6 antisenses after their intravenous administration, two month old male CD-1 mice kept on a 12/12 hour light/dark cycle with food and water freely available were given an injection by tail vein of 0.9% saline with or without 10 μg/mouse of each of the three antisenses. To determine the specificity of the PTS-6 antisense on I-PACAP27 efflux, three other antisenses were also injected iv. These were:
After 24 h, the mice were anesthetized with urethane and both jugular veins exposed. The thorax was opened, the descending thoracic aorta clamped, both jugular veins severed, and lactated Ringer's solution containing I-PACAP27 (250,000 cpm/ml) perfused through the left ventricle of the heart at the rate of 2 ml/min. ^131I-PACAP38 (hereafter referred to as I-PACAP38) was perfused in some mice treated with PTS-6 antisense. After 5 min, the perfusion was stopped and 20 ml of lactated Ringer's solution was infused through the left ventricle of the heart to wash out the vascular space of the brain. The level of radioactivity was determined in the brain and in an aliquot of the perfusion fluid and results expressed as the brain/perfusion ratio in units of μl/g.

[1] = Percent of iv injected dose taken up per gram of brain or liver; format: in vivo, mouse
Description: (§1) Calculation of the percent of injected dose taken up per gram of tissue: For the purpose of these studies, mice were injected iv (into the jugular vein) with P-19 mer or P-23 mer (5×10^5 cpm/200 μl of Lactated Ringer's solution (Baxter Healthcare Corporation, Deerfiled, Ill.) supplemented with 1% BSA). […] Serum levels of radioactivity were determined by counting 50 μl of serum in a gamma counter.
(§2) The % of the injected dose taken up by each gram of either whole brain, brain region (hippocampus or frontal cortex) or liver tissue (% Inj dose/g brain) was calculated using the following formula: % Inj dose/g brain=100(Am/Cpt−Vi)Cpt/Inj, where Am/Cpt represents the brain/serum ratio at time t, and Inj is the mean dose injected i.v. Subtracting Vi from the tissue/serum ratio corrects for P-Olg in the vascular space of the whole tissue. This will remove the vascular component so that the quantities expressed represent only the P-Olg that has been taken up by tissue. The values for % Inj dose/g brain will be plotted against their respective time points (min).
For these studies, the PS-ODNs were delivered iv and relative uptake into the brain and liver (from 5-30 min) were studied.

[2] = CNS pharmacokinetics of iv P-Olg (influx rate, saturability, capillary depletion, regional uptake); format: in vivo, mouse; settings: for distribution between brain capillaries and parenchyma (capillary depletion) / saturability of brain uptake: 30 min after iv; for distribution between brain capillaries and parenchyma (capillary depletion): with vascular washout; for saturability of brain uptake: co-administration of 10 μg unlabeled PS-ODN; for rate of brain uptake (Ki): iv (jugular), multiple-time regression 2-30 min; for mean regional uptake into hippocampus (HPC) versus frontal cortex (FC) and whole brain (WB): iv, 2-30 min
Description: For this analysis, the brain/serum ratios for time points ranging from 2 to 30 min after i.v. injection was plotted against their respective exposure times (Expt). Expt is used instead of real time because this value corrects for the clearance of the injected substance from the blood. Without this correction, the influx rate would be overestimated. […] Expt will be calculated using the following formula: Expt=[∫^toCp(t)dt]/Cpt, where t is time, Cp represents the level of radioactivity in the serum and Cpt is the level of radioactivity in the serum at time t.
as §1, §2
Measuring saturability of brain uptake for cocktail ODNs: To determine if brain uptake of each individual P-Olg was saturable, 10 μg/mouse of unlabeled cocktail PS-ODN (either 19 mer or 23 mer) was included in the i.v. injection of either P-19 mer or P-23 mer at a dose of 5×10^5 cpm/200 μl of Lactated Ringer's solution supplemented with 1% BSA [LR-BSA]). Brain and serum samples were collected 30 min after i.v. injection. Results were expressed as brain/serum ratios.
In these studies, mice received an iv injection of either P-19 mer or P-23 mer at a dose of 5×10^5 cpm/200 μl LR-BSA into the jugular vein. Washout of the vascular space was performed to remove any substances that were intravascular or loosely adhered to the capillary lumen of the brain microvasculature.
Mice were anesthetized with 40% urethane and, at 30 min after i.v. injection of P-Olg into the jugular vein, the abdomen was opened and arterial blood was collected from the abdominal aorta. Next, the thorax was opened with a midline sternal incision and the descending thoracic aorta was clamped to cut off the circulation to the lower body. Both jugular veins were severed and an 18-gauge needle connected to a 20 ml syringe containing lactated Ringers (LR) solution was inserted into the left ventricle of the heart. All 20 ml of LR were infused into the mouse heart over a period of 1-2 min. This washes out the vascular space of the brain and drains out the severed jugular veins. […] Next, the homogenate was vortexed and homogenized a second time (3 strokes). All homogenization steps were performed at 4° C. on ice. […] After centrifugation, the supernatant containing the brain parenchyma was separated from the pellet (containing the brain microvasculature) and the level of radioactivity was determined with a Beckman scintillation counter.
Results from the capillary depletion experiments were expressed as the volume of distribution in the brain or capillaries for the injected substance. Volume of distribution (VD) values were expressed as tissue (parenchyma or capillary)/serum ratios and were calculated for both fractions using the following formula: VD=(cpm/gram of tissue)/(cpm/ml of serum)

[3] = Brain-to-blood efflux rate of icv P-Olg; format: in vivo, mouse; settings: for half-life of efflux from the brain: first 20 min after icv administration; for rate of brain efflux: icv injection
Description: First, mice were anesthetized with an i.p. injection of 40% urethane. After the scalp was removed, a hole was made through the cranium (1.0 mm lateral and 0.5 mm posterior to bregma) with a 26-gauge needle. All of the needle except 2.5 to 3.0 mm of the tip was covered by PE-10 tubing. […] Injections were made into the lateral ventricle (icv) with a 1.0 μl Hamilton syringe.
In experiments in which brain efflux of the cocktail PS-ODNs were determined, each P-Olg (either P-19 mer or P-23 mer) was studied separately. A P-Olg (5×10^3 cpm/μl) was administered by icv injection. Mice were then decapitated at 2, 5, and 20 min after injection and the brain was removed. The amount of radioactivity present in the brain was measured by a scintillation counter. The amount of radioactivity in the brain at t=0 was estimated in mice overdosed with urethane. […] Brains from these mice were removed 10 min after injection. The log of the mean % of the injected dose of radioactivity (amount detected/amount injected*100=% Inj Dose) in each brain was plotted against time (min) and linear regression analysis was used to create a line between these time points.

mouse brain microvessels = experiment: I-PACAP27 binding to isolated mouse brain microvessels; settings: for displacement of I-PACAP27 binding by unlabeled peptide: 50 nM unlabeled peptide, 2.5 min
Description: Binding Study. Freshly isolated microvessels (30 μg protein) were resuspended in 45 μl of incubation buffer (129 mM NaCl, 2.5 mM KCl, 7.4 mM Na2HPO4, 1.3 mM KH2PO4, 0.63 mM CaCl2, 0.74 mM MgSO4, 5.3 mM glucose, 0.1 mM ascorbic acid, pH 7.4) containing 1% bovine serum albumin (BSA). Microvessel protein levels were determined with the Biorad DC protein assay kit (Hercules, Calif.). Incubation buffer, PACAP27 (4 μl of 0.8 nM), and any additives as indicated below were mixed with the 45 μl suspension of cells to a final volume of 60 μl (to give a final PACAP27 concentration of 53 pM) and incubated for 2.5 min at room temperature unless otherwise specified. At the end of incubation, samples were assayed for protein-bound radioactivity by vacuum filtration through Gelman Sciences glass microfiber filters (Ann Arbor, Mich.) pretreated with 0.5% polyethyleneimine. Filters were washed three times with 4 ml of incubation buffer at 4° C. The radioactivity trapped on the filters was measured using a gamma-counter. Nonspecific binding was determined in the absence of microvessels and under the above conditions was 20% of the total binding (TB). The specific binding was calculated as total binding minus non-specific binding and expressed as a percentage. All experiments were performed in triplicate on at least three occasions and the results reported as means with their standard errors.
Inhibition of Specific Binding of PACAP27. Self-inhibition was tested by adding varying amounts of unlabeled PACAP27. The percent of specific binding was calculated by taking the % TB for microvessels incubated with 0.8 nM PACAP27 as 100% and without microvessel incubation as 0%. An n of 3 was used per concentration. The fmol specifically bound was calculated by dividing the percent of specific binding by 100 and multiplying by the pM (PACAP27 and any unlabeled PACAP27 combined) of the incubation solution and by the volume. This was plotted against the nM in the media and the relation fitted to a one-site hyperbolic binding model.
Inhibition of I-PACAP27 Binding by PACAP Related Peptides. The effects of 50 nM of unlabeled PACAP27, PACAP38, the PACAP antagonists PACAP 6-27 and PACAP 6-38 (Bachem, Torrance, Calif.), and VIP (Sigma, St. Louis, Mo.) on PACAP27 specific binding was determined. Results were expressed as percent of control.

Type-I binding sites = settings: anterior pituitary and hypothalamus, I-PACAP27 radioligand; cited from earlier work

T1 sequence (P56480 47-529): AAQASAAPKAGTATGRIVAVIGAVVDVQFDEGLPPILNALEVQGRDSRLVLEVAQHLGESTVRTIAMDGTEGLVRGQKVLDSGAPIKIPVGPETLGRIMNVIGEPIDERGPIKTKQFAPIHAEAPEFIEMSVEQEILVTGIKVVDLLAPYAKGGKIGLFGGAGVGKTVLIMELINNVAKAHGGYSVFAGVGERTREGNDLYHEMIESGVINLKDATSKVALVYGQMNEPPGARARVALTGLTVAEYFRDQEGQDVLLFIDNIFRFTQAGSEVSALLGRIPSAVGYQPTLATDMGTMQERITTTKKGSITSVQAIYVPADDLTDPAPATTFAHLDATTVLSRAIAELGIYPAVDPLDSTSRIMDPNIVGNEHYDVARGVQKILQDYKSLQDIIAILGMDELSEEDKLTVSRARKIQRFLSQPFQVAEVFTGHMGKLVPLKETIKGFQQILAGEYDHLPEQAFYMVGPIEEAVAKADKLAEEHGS

5′-(_P═S)GATCACGTACACATCGACACCAGTCGCCATGACTGAGCTT (dG*dA*dT*dC*dA*dC*dG*dT*dA*dC*dA*dC*dA*dT*dC*dG*dA*dC*dA*dC*dC*dA*dG*dT*dC*dG*dC*dC*dA*dT*dG*dA*dC*dT*dG*dA*dG*dC*dT*dT; listed as Mus musculus) [random 42-mer]
uptake of I-PACAP27 delivered by brain perfusion (beta-F1 ATPase): no statistically significant effect

5′-(_P═S)GTGTGGGCCGATGCAAACAGCAG-3′ (antisense dG*dT*dG*dT*dG*dG*dG*dC*dC*dG*dA*dT*dG*dC*dA*dA*dA*dC*dA*dG*dC*dA*dG; listed as Mus musculus) [P-23 mer]
percentage taken up by each gram of brain ([1]; 5 min after iv injection): 0.010 % Inj dose/g
percentage taken up by each gram of liver ([1]; 5 min after iv injection): 2.71 % Inj dose/g
percentage taken up by each gram of brain ([1]; 10 min after iv injection): 0.044 % Inj dose/g
percentage taken up by each gram of liver ([1]; 10 min after iv injection): 5.33 % Inj dose/g
percentage taken up by each gram of brain ([1]; 30 min after iv injection): 0.052 % Inj dose/g
percentage taken up by each gram of liver ([1]; 30 min after iv injection): 7.67 % Inj dose/g
distribution between brain capillaries and parenchyma (capillary depletion) [2]: detected in the target tissue, the brain capillaries
saturability of brain uptake [2]: significantly reduced
rate of brain uptake (Ki) [2]: 0.20 µL/g/min
mean regional uptake into hippocampus (HPC) versus frontal cortex (FC) and whole brain (WB) [2]: significantly greater
half-life of efflux from the brain [3]: 0.797 h
rate of brain efflux [3]: 0.0063 % of the injected dose/min

5′-(_P═S)TGATTTGGTCTCTGCAGGC-3′ (antisense dT*dG*dA*dT*dT*dT*dG*dG*dT*dC*dT*dC*dT*dG*dC*dA*dG*dG*dC; listed as Mus musculus) [P-19 mer]
percentage taken up by each gram of brain ([1]; 5 min after iv injection): 0.042 % Inj dose/g
percentage taken up by each gram of liver ([1]; 5 min after iv injection): 447 % Inj dose/g
percentage taken up by each gram of brain ([1]; 10 min after iv injection): 0.079 % Inj dose/g
percentage taken up by each gram of liver ([1]; 10 min after iv injection): 5.54 % Inj dose/g
percentage taken up by each gram of brain ([1]; 30 min after iv injection): 0.116 % Inj dose/g
percentage taken up by each gram of liver ([1]; 30 min after iv injection): 10.43 % Inj dose/g
distribution between brain capillaries and parenchyma (capillary depletion) [2]: detected in the target tissue, the brain capillaries
saturability of brain uptake [2]: not significantly decreased
rate of brain uptake (Ki) [2]: 0.18 µL/g/min
mean regional uptake into hippocampus (HPC) versus frontal cortex (FC) and whole brain (WB) [2]: greater than the uptake into the WB
half-life of efflux from the brain [3]: 3.858 h
rate of brain efflux [3]: 0.0013 % of the injected dose/min

PACAP38: biologically active form of pituitary adenylate cyclase-activating polypeptide
displacement of I-PACAP27 binding by unlabeled peptide (mouse brain microvessels; room temperature): PACAP38>PACAP27>PACAP(6-38)>PACAP(6-27)
Kd (Type-I binding sites): ~500 pM

PACAP [PACAP27]
time at which specific binding reached a maximum (mouse brain microvessels; 53 pM, room temperature): about 20 min
displacement of I-PACAP27 binding by unlabeled peptide (mouse brain microvessels; room temperature): PACAP38>PACAP27>PACAP(6-38)>PACAP(6-27)
amount of unlabeled PACAP27 above which binding was inhibited competitively (mouse brain microvessels; self-inhibition of I-PACAP27 binding): above 30 ng
Kd (Type-I binding sites): ~500 pM

PACAP(6-27): PACAP antagonist (FTDSYSRYRKQMAVKKYLAAVL; ends and bridges not checked)
displacement of I-PACAP27 binding by unlabeled peptide (mouse brain microvessels; room temperature): PACAP38>PACAP27>PACAP(6-38)>PACAP(6-27)

PACAP(6-38): PACAP antagonist (FTDSYSRYRKQMAVKKYLAAVLGKRYKQRVKNK; ends and bridges not checked)
displacement of I-PACAP27 binding by unlabeled peptide (mouse brain microvessels; room temperature): PACAP38>PACAP27>PACAP(6-38)>PACAP(6-27)

vasoactive intestinal polypeptide [VIP]
displacement of I-PACAP27 binding by unlabeled peptide (mouse brain microvessels; room temperature): not affected
Kd (Type-I binding sites): > 500000 pM
